{"source": "patent US20130331427A1", "about": "“METHODS OF STIMULATING CELLULAR GROWTH, SYNAPTIC, REMODELING AND CONSOLIDATION OF LONG-TERM MEMORY” (Blanchette Rockefeller Neuroscience Institute, priority 2007, published 2013)", "key": {"[1]": {"test_system": "Hermissenda Crassicornis", "assay": "Pavlovian conditioning of Hermissenda, memory retention", "assay_type": "in vivo", "experimental": "Specimens of Hermissenda Crassicornis were maintained in artificial sea water (ASW) at 15° for three days in perforated 50-ml conical centrifuge tubes before starting experiments. […] For selected experiments lactacysteine (10 μM) or anisomycin was added to the ASW.\nPavlovian conditioning of Hermissenda involves repeated pairings of a neutral stimulus, light, with an unconditioned stimulus, orbital shaking. (See, Lederhendler et al. (24) and Epstein et al. (6)). A rotation/shaking stimulus excites the statocyst hair cells and thereby elicits an unconditioned response: a brisk contraction of the muscular undersurface called a foot, accompanied by adherence or “clinging” to the surface that supports the foot. Before conditioning, light elicits a weakly positive phototaxis accompanied by lengthening of the foot. After sufficient light-rotation pairings, light no longer elicits phototaxis, but instead elicits a new response (24): the “clinging” and foot shortening previously elicited only by the unconditional stimulus (FIG. 1). Thus, the meaning of the unconditioned stimulus, rotation or orbital shaking, has been transferred to the conditioned stimulus and is manifested by a light-elicited foot contraction—a negative change of foot length. This conditioned response to light can last for weeks, is not produced by randomized light and rotation, is stimulus-specific, and shares the other defining characteristics of mammalian Pavlovian Conditioning.\nPavlovian conditioning of Hermissenda has well-defined training parameters that produce progressively longer-lasting retention of the learned conditioned response. Two training events (2 TE) of paired light and orbital shaking (see “Methods”), for example, induce a learned conditioned response (light-elicited foot contraction or shortening) that persists without drug treatment for approximately 7 minutes. Four to six training events (4-6 TE) induce a conditioned response that persists up to several hours, but disappears approximately by 1 day after training. Nine TE produces long-term associative memory lasting many days and often up to two weeks.\nAll animals were tested with the CS alone at 4 h, then at 24-h intervals."}, "[2]": {"test_system": "PKC", "assay": "PKC activity in cultured rat hippocampal H19-7/IGF-IR cells", "assay_type": "cell-based", "experimental": "Cells were homogenized by sonication (5 sec, 25 W) in 100 μl of 100 mM Tris-HCL pH 7.4 buffer containing 1 mM EGTA, 1 mM PMSF, and 50 mM NaF. Homogenate was transferred to a polyallomer centrifuge tube and was centrifuged at 100,000×g for 10 min at 4°. The supernatant was removed and immediately frozen on dry ice. The particulate fraction was resuspended by sonication in 100 μl of the same buffer and stored at −80°. To measure PKC, 10 μl of cytosol or particulate fraction was incubated for 15 min at 37° in the presence of 10 μM histones, 4.89 mM CaCl2, 1.2 μg/μl phosphatidyl-L-serine, 0.18 μg/μl 1.2-dioctanoyl-sn-glycerol, 10 mM MgCl2, 20 mM HEPES (pH 7.4), 0-8 mM EDTA, 4 mM EGTA, 4% glycerol, 8 μg/ml aprotinin, 8 μg/ml leupeptin, and 2 mM benzamidine. 0.5 μCi [γ^32-P]ATP was added and ^32P-phosphoprotein formation was measured by adsorption onto phosphocellulose as described previously (25). This assay was used with slight adjustments for either Hermissenda nervous system homogenates or cultured mammalian neuron homogenates.\nRat hippocampal H19-7/IGF-IR cells (ATCC) were plated onto poly-L-lysine coated plates and grown at 35° in DMEM/10% FCS for several days until approx. 50% coverage was obtained. The cells were then induced to differentiate into a neuronal phenotype by replacing the medium with 5 ml N2 medium containing 10 ng/ml basic fibroblast growth factor and grown in T-25 flasks at 39° C. (26). […] After a specified interval, the medium was removed and the cells were washed with PBS, removed by gentle scraping, and collected by centrifugation at 1000 rpm for 5 min.\nThese differentiate to have a neuronal phenotype when induced by basic fibroblast growth factor in N2 medium (26) and express a normal complement of neuronal proteins, including PKC.\nBoth the initial PKC activation and subsequent downregulation have been previously described and were confirmed by measurement of PKC activity in membrane and cytosol."}, "[3]": {"settings": "single dose 0.28 nM for 30 minutes"}}}
{"smiles": "CCC/C=C/C=C/C(=O)O[C@H]1/C(=C/C(=O)OC)C[C@H]2C[C@H]([C@@H](C)O)OC(=O)C[C@H](O)C[C@@H]3C[C@H](OC(C)=O)C(C)(C)[C@](O)(C[C@@H]4C/C(=C/C(=O)OC)C[C@H](/C=C/C(C)(C)[C@]1(O)O2)O4)O3", "note": "[bryostatin, bryostatin-1]", "values": [{"measurement": "memory retention", "setting": "[1]; 2 TE plus bryostatin 0.25 ng/ml for 4 h during and after training, minutes without", "value": "lasting hours"}, {"measurement": "memory retention", "setting": "[1]; 4 TEs plus bryostatin 0.25 ng/ml for 4 h", "value": "> 24", "unit": "h"}, {"measurement": "retention", "setting": "[1]; 20 h pre-exposure 0.25 ng/ml, 4-paired TE, at 48 h", "value": "persisted"}, {"measurement": "time by which retention was gone", "setting": "[1]; 20 hr exposure 0.25 ng/ml, 2-paired TE", "value": "≤ 48", "unit": "h"}, {"measurement": "concentration that inhibited acquisition and behavioral retention", "setting": "[1]; all training conditions tested", "value": "greater than 1.0 ng/ml"}, {"measurement": "memory after 2, 4, or 6 training trials", "setting": "[1]; low doses (0.1-0.25 ng/ml)", "value": "markedly enhanced memory"}, {"measurement": "conditioned response", "setting": "[1]; randomized presentations of light and rotation", "value": "no conditioned response"}, {"measurement": "time after which behavioral retention was lost", "setting": "[1]; single 4 h exposure 0.25 ng/ml alone, 2-paired TEs 24 hrs later", "value": "≤ 24", "unit": "h"}, {"measurement": "concentrations that augment acquisition and memory retention", "setting": "[1]; sub-optimal (4 TE) training", "value": "< 0.50", "unit": "ng/mL"}, {"measurement": "long-term retention (LTR) post-training", "setting": "[1]; three successive days of 4-h exposure 0.25 ng/ml, 2-TEs one day later", "value": "≥ 96", "unit": "h"}, {"measurement": "long-term retention", "setting": "[1]; two successive days of 4-h exposure 0.25 ng/ml, 2-paired TEs", "value": "at least 6 days"}, {"measurement": "PKC activity, cytoplasmic fraction", "setting": "[2]; exposed twice within a 2-hour period", "value": "significant reduction"}, {"measurement": "membrane-bound PKC downregulation", "setting": "[2]; second 30-minute exposure after a 2- to 4-hour delay", "value": "eliminated the significant downregulation"}, {"measurement": "PKC activity, cytoplasmic fraction", "setting": "[2]; second exposure 4 hours after the first", "value": "increased above baseline"}, {"measurement": "membrane-bound PKC after the brief translocation", "setting": "[2]; [3]", "value": "prolonged downregulation"}, {"measurement": "translocation of PKC from the cytosol to the particulate fraction", "setting": "[2]; [3]", "value": "approx 60%"}, {"measurement": "PKC activity, cytoplasmic fraction", "setting": "[2]; within the first 4 hours after exposure", "value": "no significant alteration"}]}
